Consider 14 molecules from patent US20230416245A1, “ADENOSINE ANALOGS FOR THE TREATMENT OF DISEASE” (BIOINTERVENE, INC., priority 2020, published 2023).

The Ki is the equilibrium dissociation constant of an inhibitor or competing ligand from its target. In general, EC50 refers to the concentration that produces a half-maximal response.

Molecules are shown by their SMILES.

Assay [1] addresses human adenosine A3 receptor (Homo sapiens (Human), UniProt P0DMS8). Description: Adenosine receptor binding assay ([125I]-AB-MECA competition). The following applies: inhibition of 0.15 nM [125I]-AB-MECA binding, membranes of cells expressing human A3 receptor; read-out: hA3 Ki: Ki. From the text: Example 30: Adenosine Receptor Binding Assay
Materials and Reference Compounds: [^125I]-AB-MECA and [^3H]CCPA are both obtained from Amersham Biosciences (Little Chalfont, UK). IB-MECA are obtained from Tocris (Bristol, UK) and N6-cyclopentyl adenosine (CPA) is obtained from Sigma-Alrich (Poole, UK). Cell culture media, G418 and hygromycin are obtained from Invitrogen (Paisley, UK). Fetal calf serum is obtained from Perbio Science (Cheshire, UK). All other reagents are obtained from Fisher Chemicals (Loughborough, UK).
The method followed is that of Yates L, Clark J H, Martin T J, James S, Broadley K J, Kidd E J. Radioligand binding and functional responses of ligands for human recombinant adenosine A3 receptors. Auton Autacoid Pharmacol. 2006; 26(2):191-200. Cells stably transfected with the human adenosine A3 or A1 receptor are grown in Dulbecco's modified Eagles medium with nutrient mixture F12 containing NaHCO3 and Glutamax. Media is supplemented with 10% fetal calf serum, geneticin (G418; 0.67 mg/mL), hygromycin (500 μg/mL) and adenosine deaminase (1 U/mL). Cells are maintained at 37° C. with 5% CO2 in air. Cells are harvested and homogenized in ice-cold Tris buffer [50 mM Tris, 150 mM NaCl, 1 mM ethylenediaminetetraacetic acid (EDTA), pH 7.4] supplemented with the peptidase inhibitors, 4-(2-aminoethyl)benzenesulfonylfluoride (1 mM) and bacitracin (0.1 mg/mL), using a Polytron homogenizer (3×10 s bursts). The homogenate was spun for 10 min (4° C.) at 500 g. The supernatant is retained and the pellet is re-suspended in the buffer, homogenized and spun as above. The combined supernatants are centrifuged for 15 min (4° C.) at 48,000 g. The resultant pellet is re-suspended in the buffer and centrifuged for a second time at 48,000 g. The membrane pellet is then suspended in Tris buffer containing no peptidase inhibitors or adenosine deaminase and stored at −80° C. at a protein concentration of 1 mg/mL.
Binding Assays: Radioligand-binding assays were performed using the adenosine A3 receptor agonist [^125I]-AB-MECA and the A1 receptor agonist [^3H]CCPA. Binding assays were conducted in a total volume of 100 μL containing a 50 mM Tris, pH 7.4 buffer with or without 10 mM MgCl2, 20 μg membranes and either 0.15 nM [^125I]-AB-MECA (for the A3 receptor) or 1 nM [^3H]CCPA (for the A1 receptor). Assays were conducted at room temperature for 60 min (A1 receptor) or 120 min (A3 receptor) and terminated by the addition of 2 ml of ice-cold wash buffer (50 mM Tris, pH 7.4 with or without 10 mM MgCl2) and rapid filtration over 0.03% polyethylenimine-treated Whatman GF/C filters using a Brandel cell harvester (Semat International Ltd., St Albans, UK). Filters were then washed three times with 2 ml of ice-cold buffer. The filter-bound radioactivity were counted using a Compugamma counter (LKB Wallac, Turku, Finland). Competition experiments were performed to investigate the ability of reference compounds and embodiments of the invention to inhibit [^125I]-AB-MECA binding. Non-specific binding were determined using the respective compound at its highest concentration.
Data Analysis: The Kd and Bmax values for binding data were calculated based upon the molar amounts of bound and free [^125I]-AB-MECA. […] IC50 and Ki values and Hill slopes for inhibition of the radioligand binding by the compounds of the invention were calculated from the ligand competition curves using the Excel spreadsheet and the Kd value calculated for either [^125I]-AB-MECA or [^3H]CCPA. The results were expressed as a percent of control specific binding and as a percent inhibition of control specific binding obtained in the presence of the compounds of the invention. The IC50 values (concentration causing a half-maximal inhibition of control specific binding) and Hill coefficients (nH) were determined by non-linear regression analysis of the competition curves generated with mean replicate values using Hill equation curve fitting: […]

In a further assay the target is ADORA3 (Homo sapiens (Human), UniProt P0DMS8). Nature of the assay: Intracellular calcium release assay (FLIPR). In kind it is cell-based. The conditions noted are these: for EC50: CHO-K1 cells, Fluo-4, top concentration 10 μM, read-out: Cell Calcium Assay EC50; for Cell Calcium Efficacy (%): percentage of the response to NECA. As to the method:
Example 32: Intracellular Calcium Release Assay
Cell Culture: The table below lists the cell lines used that stably express the 4 subtypes of adenosine receptors, along with the growth medium used for each:
For experiments with the ADORA1- and ADORA3-expressing cells, the medium was aspirated and the cells washed twice with 10 mL DPBS. Two mL of trypsin was added and incubated at 37° C. for 1 minute. Then 10 mL of platting media was added to terminate the digestion and 1 mL of the solution was taken out for cell counting. ADORA2A- and ADORA2B-expressing cells were thawed rapidly in a 37° C. water bath. Cell suspensions were transferred to 50 mL conical tubes. Plating media was added to the 10 mL mark and then 1 mL taken out for cell counting. The 50 mL tubes containing the various types of cells were centrifuged at 1000 g. Then the supernatants were aspirated, being careful not to aspirate the cells. The cell pellets were resuspended in 3-5 mL platting media, then 0.5 mL was taken out for cell counting. Then the cell suspension was diluted to 1×10^6 cells/mL (20,000 cells per 20 μL per well) in platting medium, and cells were seeded into 384-well cell plates (Greiner-781946). The 384-well cell plate was placed in a 37° C./5% CO2 incubator (Thermo-371, Thermo Scientific) for 16-20 hours.
Preparation of the intracellular calcium imaging agent (Fluo-4 Direct™ Calcium Assay Kit, Invitrogen-F10471, Thermo Scientific): One mL of FLIPR Assay Buffer was added to 77 mg probenecid to make a 250 mM solution, which was used fresh for each day. One vial of Fluo-4 Direct™ crystals was thawed and 10 mL of FLIPR Assay Buffer was added to the vial. 0.2 mL of probenecid was added to each 10 mL vial of Fluo-Direct™ solution, such that the final assay concentration was 2.5 mM. It was vortexed, left to stand >5 min and protected from light. The dye was prepared fresh each day.
Compound Preparation: Compound plates were prepared as follows. First, the test compound was diluted to prepare a 2 mM solution and then 10-point 3-fold serial dilutions were made using ECHO (ECHO 555, LabCyte), then 900 nL was transferred to the compound plate. For all targets, the final top concentration of the test compound was […]. For agonist reference compounds, 10-point and 3-fold serial dilutions were made, then 900 nL was transferred to the assay plate. Then 30 μL of assay buffer was added to the compound plate and then the plate was centrifuged at 1000 rpm for 1 min.
FLIPR Assay: Cell plates were removed from the incubator, to which were added 20 μL 2×Fluo-4 Direct™ solution, then the plates were reincubated in a 5% CO2, 37° C. incubator for 50 min and at RT for 10 min. To run the protocol on the Fluorescent Imaging Plate Reader (FLIPR) TETRA (MD-FT0249, Molecular Devices, Inc.), 10 μL of assay buffer was transferred from the 384-well plate (Greiner-781280) to the cell plates and then the fluorescence signal was read. Then 10 μL of compound solution was transferred from the compound plate to the cell plates and the fluorescence signal was read. The “Max-Min” was calculated, starting from Read 91 to the maximum allowed. For agonists, activation %=(RLU−LC)/(HC−LC)*100, based on the following: RLU=relative light unit, 91 to maximum allowed signal; HC=average signal of the high concentration of agonist; LC=average signal of DMSO well. The data were fitted using GraphPad Prism 5, using the model “log(agonist) vs. response—Variable slope” to determine the EC50 value. The receptor efficacy of the test compound relative to the agonist NECA was calculated as a percentage (%) of the response to […]. Table 10 includes EC50 values for compounds described herein.

human adenosine A3 receptor, sequence (P0DMS8 whole entry): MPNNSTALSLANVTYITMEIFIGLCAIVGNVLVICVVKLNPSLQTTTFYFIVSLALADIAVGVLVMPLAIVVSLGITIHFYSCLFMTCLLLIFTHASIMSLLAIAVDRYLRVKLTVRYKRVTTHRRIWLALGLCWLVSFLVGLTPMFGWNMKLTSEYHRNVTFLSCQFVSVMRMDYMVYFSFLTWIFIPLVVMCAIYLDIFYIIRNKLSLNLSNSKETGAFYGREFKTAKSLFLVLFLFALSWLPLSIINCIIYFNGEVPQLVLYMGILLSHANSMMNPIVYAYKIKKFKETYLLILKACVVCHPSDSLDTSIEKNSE
ADORA3, sequence (P0DMS8 whole entry): as above

In the case of `O[C@@H]1[C@H](O)[C@@H]2C[C@@H]2[C@H]1n1cnc2c(NCc3cc(F)ccc3F)cc(Cl)nc21` [Compound 45, (1R,2R,3S,4R,5S)-4-(5-chloro-7-((2,5-difluorobenzyl)amino)-3H-imidazo[4,5-b]pyridin-3-yl)bicyclo[3.1.0]hexane-2,3-diol], the Ki in assay [1] amounted to 1.3 nM. At ADORA3, the EC50 was 29.5 nM and the “Cell Calcium Efficacy (%)” value is 22.5%.
For `CNC(=O)[C@@]12C[C@@H]1[C@@H](n1cnc3c(NCC(F)F)cc(Cl)nc31)[C@H](O)[C@@H]2O` [Compound 82] the same measures were 4.77 nM, 1.9 nM and 106%.
For `O[C@@H]1[C@H](O)[C@@H]2C[C@@H]2[C@H]1n1cnc2c(NCC(F)F)c(F)c(Cl)nc21` [Compound 61, (1R,2R,3S,4R,5S)-4-(5-chloro-7-((2,2-difluoroethyl)amino)-6-fluoro-3H-imidazo[4,5-b]pyridin-3-yl)bicyclo[3.1.0]hexane-2,3-diol], in that order: 7.15 nM, 60 nM and 67.3%.
Regarding `CCCNc1cc(Cl)nc2c1ncn2[C@H]1[C@H](O)[C@H](O)[C@@H]2C[C@@H]21` [Compound 66], in assay [1], the Ki was found to be 126 nM.
Still for that read-out and setting: next, `CCNc1c(Cl)c(Cl)nc2c1ncn2[C@H]1[C@H](O)[C@H](O)[C@@H]2C[C@@H]21` [Compound 71, (1R,2R,3S,4R,5S)-4-(5,6-dichloro-7-(ethylamino)-3H-imidazo[4,5-b]pyridin-3-yl)bicyclo[3.1.0]hexane-2,3-diol]: 456 nM.
For the molecule `O[C@@H]1[C@H](O)[C@@H]2C[C@@H]2[C@H]1n1cnc2c(NC3CCC3)cc(Cl)nc21` [Compound 44, (1R,2R,3S,4R,5S)-4-(5-chloro-7-(cyclobutylamino)-3H-imidazo[4,5-b]pyridin-3-yl)bicyclo[3.1.0]hexane-2,3-diol], in assay [1], the Ki was determined as 28.4 nM. Moreover, on ADORA3, the EC50 was 23.1 nM and the “Cell Calcium Efficacy (%)” value was 52%.
On to `CCNC(=O)[C@@]12C[C@@H]1[C@@H](n1cnc3c(NCC)cc(Cl)nc31)[C@H](O)[C@@H]2O` [Compound 69, (1S,2R,3S,4R,5S)-4-(5-chloro-7-(ethylamino)-3H-imidazo[4,5-b]pyridin-3-yl)-N-ethyl-2,3-dihydroxybicyclo[3.1.0]hexane-1-carboxamide], for which, in assay [1], the Ki stood at 1.68 nM.
In the case of `CNC(=O)[C@@]12C[C@@H]1[C@@H](n1cnc3c(N)cc(Cl)nc31)[C@H](O)[C@@H]2O` [Compound 90, (1S,2R,3S,4R,5S)-4-(7-amino-5-chloro-3H-imidazo[4,5-b]pyridin-3-yl)-2,3-dihydroxy-N-methylbicyclo[3.1.0]hexane-1-carboxamide], the Ki in assay [1] came to 2.42 nM.
`CNC(=O)C12C[C@@H]1[C@@H](n1cnc3c(NCC4CCC4)cc(Cl)nc31)[C@H](O)[C@@H]2O` (stereo in doubt) [Compound 65, (1S,2R,3S,4R,5S)-4-(5-chloro-7-((cyclobutylmethyl)amino)-3H-imidazo[4,5-b]pyridin-3-yl)-2,3-dihydroxy-N-methylbicyclo[3.1.0]hexane-1-carboxamide]: the Ki in assay [1] was 3.49 nM.
On the same count and under the same terms, next, `Nc1c(OCc2cccc(Cl)c2)c(Cl)nc2c1ncn2[C@H]1[C@H](O)[C@H](O)[C@@H]2C[C@@H]21` [Compound 92, (1R,2R,3S,4R,5S)-4-(7-amino-5-chloro-6-((3-chlorobenzyl)oxy)-3H-imidazo[4,5-b]pyridin-3-yl)bicyclo[3.1.0]hexane-2,3-diol]: 26.8 nM.
Same read-out and setting: next, `CCCNc1cc(Cl)nc2c1ncn2[C@H]1[C@H](O)[C@H](O)C2(C(=O)NC)C[C@H]12` (stereo in doubt) [Compound 64, (1S,2R,3S,4R,5S)-4-(5-chloro-7-(propylamino) 3H-imidazo[4,5-b]pyridin-3-yl)-2,3-dihydroxy-N-methylbicyclo[3.1.0]hexane-1-carboxamide]: 0.64 nM; `CNC(=O)[C@@]12C[C@@H]1[C@@H](n1cnc3c(NCC(C)C)cc(Cl)nc31)[C@H](O)[C@@H]2O` [Compound 83, (1S,2R,3S,4R,5S)-4-(5-chloro-7-(isobutylamino)-3H-imidazo[4,5-b]pyridin-3-yl)-2,3-dihydroxy-N-methylbicyclo[3.1.0]hexane-1-carboxamide]: 1.62 nM.
Still for that read-out and setting: next, `O[C@@H]1[C@H](O)[C@@H]2C[C@@H]2[C@H]1n1cnc2c(NCC3CCC3)cc(Cl)nc21` [Compound 67, (1R,2R,3S,4R,5S)-4-(5-chloro-7-((cyclobutylmethyl)amino)-3H-imidazo[4,5-b]pyridin-3-yl)bicyclo[3.1.0]hexane-2,3-diol]: 94.4 nM; `CNC(=O)[C@@]12C[C@@H]1[C@@H](n1cnc3c(NCCO)cc(Cl)nc31)[C@H](O)[C@@H]2O` [Compound 91, (1S,2R,3S,4R,5S)-4-(5-chloro-7-((2-hydroxyethyl)amino)-3H-imidazo[4,5-b]pyridin-3-yl)-2,3-dihydroxy-N-methylbicyclo[3.1.0]hexane-1-carboxamide]: 5.1 nM.
